Data from patent US20250221966A1, “RXFP1 AGONISTS” (BRISTOL-MYERS SQUIBB COMPANY, priority 2021, published 2025).
Read-outs that look alike come from different tables or passages of the source.

Target: T1, human RXFP1 (Homo sapiens, UniProt Q9HBX9)
T1 construct: expressed in transfected cells
T1 sequence (Q9HBX9 1-757): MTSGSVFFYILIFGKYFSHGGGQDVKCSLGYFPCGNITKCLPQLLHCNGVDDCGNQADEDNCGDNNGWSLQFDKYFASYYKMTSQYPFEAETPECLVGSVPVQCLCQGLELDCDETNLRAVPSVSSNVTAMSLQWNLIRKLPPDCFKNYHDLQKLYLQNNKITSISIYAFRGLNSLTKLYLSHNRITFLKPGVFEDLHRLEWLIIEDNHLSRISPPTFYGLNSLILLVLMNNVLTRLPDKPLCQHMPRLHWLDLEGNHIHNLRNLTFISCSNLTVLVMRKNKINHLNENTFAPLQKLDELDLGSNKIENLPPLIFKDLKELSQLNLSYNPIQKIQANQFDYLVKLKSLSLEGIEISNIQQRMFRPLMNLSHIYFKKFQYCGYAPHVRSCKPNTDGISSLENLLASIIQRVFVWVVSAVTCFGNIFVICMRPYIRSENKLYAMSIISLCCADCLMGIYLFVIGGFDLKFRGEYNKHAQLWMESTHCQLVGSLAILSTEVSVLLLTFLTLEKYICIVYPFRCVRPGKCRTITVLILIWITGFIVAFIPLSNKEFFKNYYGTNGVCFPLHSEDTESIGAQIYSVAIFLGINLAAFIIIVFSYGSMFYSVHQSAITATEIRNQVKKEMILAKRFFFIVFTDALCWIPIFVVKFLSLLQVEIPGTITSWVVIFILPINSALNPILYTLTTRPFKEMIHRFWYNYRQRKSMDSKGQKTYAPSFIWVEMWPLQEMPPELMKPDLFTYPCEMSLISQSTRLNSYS
Assay: RXFP1 cAMP assay (hRXFP1 HEK293 cAMP assay, HTRF)
Assay type: cell-based
In short: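 HEK293 cells stably expressing human RXFP1 (1500 cells/well) in HBSS/20 mM HEPES/0.05% BSA/0.5 mM IBMX. Compounds were tested at 0.010 nM–50 μM final (2% DMSO) for 30 min at room temperature. cAMP was measured by HTRF and values derived by 4-parameter logistic fit.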

[1] = HEK293 cells stably expressing human RXFP1, 30 min at room temperature, read-out: cAMP hRXFP1 HEK293 Assay EC50

Row | EC50 [1] | Structure (SMILES) | EC50 (cAMP hRXFP1 HEK293 Assay EC50, HEK293 cells stably expressing human RXFP1, 30 min at room temperature)
1 | 1.6 nM | COc1ccc(C2CCN(C(=O)C(C)(C)O)C2)cc1C(=O)N[C@H]1[C@@H](C(=O)Nc2ccc(F)c(C(F)(F)F)c2)[C@H]2CC[C@@H]1/C2=C\C1CC1 (single isomer, unassigned) [Example 449] | 
2 | 9 nM | COc1ccc(-c2ccc3c(c2)nnn3CC(=O)O)cc1C(=O)N[C@@H]1C2CCC(/C2=C/C(F)(F)F)[C@@H]1C(=O)Nc1ccc(F)c(C(F)(F)F)c1 (stereo partly drawn) [compound 312] | 
3 | 3.5 nM | COc1ccc(-c2cc(C3=NOC4CC(O)CC34)ccc2F)cc1C(=O)N[C@H]1[C@@H](C(=O)Nc2ccc(F)c(C(F)(F)F)c2)[C@H]2CC[C@@H]1/C2=C\C1CC1 (stereo partly drawn) [compound 908] | 
4 | 796 nM | COc1ccc(C2CCCN2C(=O)OC(C)(C)C)cc1C(=O)N[C@@H]1C2CCC(/C2=C/C2CC2)[C@@H]1C(=O)Nc1ccc(F)c(C(F)(F)F)c1 (single isomer, unassigned) [compound 694] | 
5 | 1300 nM | COc1cc(F)c(F)cc1C(=O)NC1C2CCC(C2=Cc2ncco2)C1C(=O)Nc1ccc(F)c(C(F)(F)F)c1 (stereo not drawn) [Example 145] | 
6 | 4.7 nM | COc1cc(C)c(-c2nnc(CO)s2)cc1C(=O)N[C@H]1[C@@H](C(=O)N[C@H](C)C2(C)CC2)[C@H]2CC[C@@H]1/C2=C\C1CC1 [compound 810] | 
7 | 135 nM | COc1ccc(-c2cc(C(=O)Nc3nnn[nH]3)ccc2F)cc1C(=O)N[C@@H]1C2CCC(/C2=C/c2cnoc2)[C@@H]1C(=O)Nc1ccc(F)c(C(F)(F)F)c1 (stereo partly drawn) [Example 192] | 
8 | 32.6 nM | COc1ccc(C2=NOC3(CO)CCCC23)cc1C(=O)N[C@H]1[C@@H](C(=O)Nc2ccc(F)c(C(F)(F)F)c2)[C@H]2CC[C@@H]1/C2=C\C1CC1 (single isomer, unassigned) [compound 548] | 
9 | 76 nM | COc1ccc(-c2ccc(C(=O)NCCN3CCOCC3)cc2F)cc1C(=O)N[C@@H]1C2CCC(/C2=C/c2ccccc2)[C@@H]1C(=O)Nc1ccc(F)c(C(F)(F)F)c1 (stereo partly drawn) [compound 198] | 
10 | 303 nM | COc1ccc(C2=NO[C@@H]3CC[C@@H](O)[C@H]23)cc1C(=O)N[C@H]1[C@@H](C(=O)Nc2ccc(F)c(C(F)(F)F)c2)[C@H]2CC[C@@H]1/C2=C\C1CC1 (single isomer, unassigned) [compound 655] | 
11 | 1400 nM | COc1ccccc1/C=C1\C2CCC1[C@H](C(=O)Nc1ccc(F)c(C(F)(F)F)c1)[C@@H]2NC(=O)c1cc(F)c(F)cc1OC (stereo partly drawn) [compound 23] | 
12 | 16 nM | COc1ccc(C2=NOC(CO)C2)cc1C(=O)N[C@H]1[C@@H](C(=O)Nc2ccc(F)c(C(F)(F)F)c2)[C@H]2CC[C@@H]1/C2=C\C1CCC1 (mixture of isomers) [Example 378, (1R,2S,3R,4R,Z)-7-(cyclobutylmethylene)-N-(4-fluoro-3-(trifluoromethyl)phenyl)-3-(5-(5-(hydroxymethyl)-4,5-dihydroisoxazol-3-yl)-2-methoxybenzamido)bicyclo[2.2.1]heptane-2-carboxamide] | 
13 | 62 nM | COc1ccc(-c2cnn(CC(=O)O)c2)cc1C(=O)N[C@@H]1C2CCC(/C2=C/c2ccccc2)[C@@H]1C(=O)Nc1ccc(F)c(C(F)(F)F)c1 (stereo partly drawn) [compound 340] | 
14 | 74.9 nM | COc1ccc(C2=NO[C@@H]3[C@H](O)CC[C@H]23)cc1C(=O)N[C@H]1[C@@H](C(=O)Nc2ccc(F)c(C(F)(F)F)c2)[C@H]2CC[C@@H]1/C2=C\C1CC1 (single isomer, unassigned) [compound 583] | 
15 | 270 nM | COc1ccc(N2CCCC(C(=O)O)C2)cc1C(=O)N[C@@H]1C2CCC(/C2=C/c2ccccc2)[C@@H]1C(=O)Nc1ccc(F)c(C(F)(F)F)c1 (stereo partly drawn) [Example 136] | 
16 |  | COc1cc(F)c(F)cc1C(=O)N[C@@H]1[C@H](C(=O)Nc2ccc(F)c(C(F)(F)F)c2)[C@@H]2CC[C@H]1C2C(C)C (stereo partly drawn) [compound 975] | 1000 nM
17 | 172 nM | COc1ccc(C2=NOC3COCC23)cc1C(=O)N[C@H]1[C@@H](C(=O)Nc2ccc(F)c(C(F)(F)F)c2)[C@H]2CC[C@@H]1/C2=C\C1CC1 (stereo partly drawn) [Example 417, (1R,2S,3R,4R,Z)-7-(cyclopropylmethylene)-N-(4-fluoro-3-(trifluoromethyl)phenyl)-3-(2-methoxy-5-(3a,4,6,6a-tetrahydrofuro[3,4-d]isoxazol-3-yl)benzamido)bicyclo[2.2.1]heptane-2-carboxamide] | 

Row | EC50 [1] | Structure (SMILES) | EC50 (cAMP hRXFP1 HEK293 Assay EC50, HEK293 cells stably expressing human RXFP1, 30 min at room temperature)
18 | 3140 nM | COc1ccc(C2CCCN2)cc1C(=O)N[C@@H]1C2CCC(C2=CC2CC2)[C@@H]1C(=O)Nc1ccc(F)c(C(F)(F)F)c1 (stereo partly drawn) [compound 720] | 
19 | 1 nM | COc1ccc(-c2cc(C(C)OC(=O)Nc3ccccc3)ccc2F)cc1C(=O)N[C@H]1[C@@H](C(=O)Nc2ccc(F)c(C(F)(F)F)c2)[C@H]2CC[C@@H]1/C2=C\C1CC1 (stereo partly drawn) [Example 222, 1-(3′-(((1R,2R,3S,4R,Z)-7-(cyclopropylmethylene)-3-((4-fluoro-3-(trifluoromethyl)phenyl)carbamoyl)bicyclo[2.2.1]heptan-2-yl)carbamoyl)-6-fluoro-4′-methoxy-[1,1′-biphenyl]-3-yl)ethyl phenylcarbamate] | 
20 | 14 nM | COc1ccc(-c2cc(C(N[S+]([O-])C(C)(C)C)C(F)(F)F)ccc2F)cc1C(=O)N[C@H]1[C@@H](C(=O)Nc2ccc(F)c(C(F)(F)F)c2)[C@H]2CC[C@@H]1/C2=C\C1CC1 (stereo partly drawn) [Example 256, (1R,2S,3R,4R,Z)-3-(5′-(1-((tert-butylsulfinyl)amino)-2,2,2-trifluoroethyl)-2′-fluoro-4-methoxy-[1,1′-biphenyl]-3-carboxamido)-7-(cyclopropylmethylene)-N-(4-fluoro-3-(trifluoromethyl)phenyl)bicyclo[2.2.1]heptane-2-carboxamide] | 
21 | 757 nM | CCOC(=O)c1ccnn1-c1ccc(OC)c(C(=O)N[C@@H]2C3CCC(/C3=C/C(F)(F)F)[C@@H]2C(=O)Nc2ccc(F)c(C(F)(F)F)c2)c1 (stereo partly drawn) [compound 344] | 
22 | 220 nM | COc1c(I)cc(I)cc1C(=O)N[C@@H]1C2CCC(/C2=C/c2ccccc2)[C@@H]1C(=O)Nc1ccc(F)c(C(F)(F)F)c1 (stereo partly drawn) [compound 132] | 
23 | 39 nM | COc1ccc(C2=NOC3C(O)CC(O)C23)cc1C(=O)N[C@H]1[C@@H](C(=O)Nc2ccc(F)c(C(F)(F)F)c2)[C@H]2CC[C@@H]1/C2=C\C1CC1 (stereo partly drawn) [Example 413, (1R,2S,3R,4R,Z)-7-(cyclopropylmethylene)-3-(5-(4,6-dihydroxy-3a,5,6,6a-tetrahydro-4H-cyclopenta[d]isoxazol-3-yl)-2-methoxybenzamido)-N-(4-fluoro-3-(trifluoromethyl)phenyl)bicyclo[2.2.1]heptane-2-carboxamide] | 
24 | 31 nM | COc1ccc(C2=NOC3CNCC23)cc1C(=O)N[C@H]1[C@@H](C(=O)Nc2ccc(F)c(C(F)(F)F)c2)[C@H]2CC[C@@H]1/C2=C\C1CC1 (stereo partly drawn) [Example 437, (1R,2S,3R,4R,Z)-7-(cyclopropylmethylene)-N-(4-fluoro-3-(trifluoromethyl)phenyl)-3-(2-methoxy-5-(3a,5,6,6a-tetrahydro-4H-pyrrolo[3,4-d]isoxazol-3-yl)benzamido)bicyclo[2.2.1]heptane-2-carboxamide] | 
25 | 3.3 nM | COc1ccc(C2=NOC3CC(C)(CO)CC23)cc1C(=O)N[C@H]1[C@@H](C(=O)Nc2ccc(F)c(C(F)(F)F)c2)[C@H]2CC[C@@H]1/C2=C\C1CCCC1 (stereo partly drawn) [compound 749] | 
26 | 110 nM | CCc1cccc(/C=C2\C3CCC2[C@H](C(=O)Nc2ccc(F)c(C(F)(F)F)c2)[C@@H]3NC(=O)c2cc(F)c(F)cc2OC)c1 (stereo partly drawn) [compound 29] | 
27 | 3.1 nM | COC(=O)N1Cc2cccc(-c3ccc(OC)c(C(=O)N[C@@H]4C5CCC(/C5=C/C5CC5)[C@@H]4C(=O)Nc4ccc(F)c(C(F)(F)F)c4)c3)c2C1 (stereo partly drawn) [compound 881] | 
28 | 4 nM | COCC(=O)NC(C(=O)O)c1ccc(F)c(-c2ccc(OC)c(C(=O)N[C@@H]3C4CCC(/C4=C/C(F)(F)F)[C@@H]3C(=O)Nc3ccc(F)c(C(F)(F)F)c3)c2)c1 (stereo partly drawn) [compound 243] | 
29 | 612 nM | COc1ccc(C2=NOC(C(C)(O)C(F)(F)F)C2)cc1C(=O)N[C@H]1[C@@H](C(=O)Nc2ccc(F)c(C(F)(F)F)c2)[C@H]2CC[C@@H]1/C2=C\C1CC1 (single isomer, unassigned) [compound 682] | 
30 | 0.9 nM | C[C@@H](NC(=O)[C@@H]1[C@H](NC(=O)c2cc(C3=NOC4CC(CO)CC34)cc(F)c2OCC2CC2)[C@@H]2CC[C@H]1/C2=C/C1CC1)C1(C)CC1 (stereo partly drawn) [compound 758] | 
31 | 3.6 nM | COc1c(F)cc(-c2ccc3c(c2)S(=O)(=O)N(C(C)(C)C)C3)cc1C(=O)N[C@H]1[C@@H](C(=O)N[C@H](C)C2(C)CC2)[C@H]2CC[C@@H]1/C2=C\C1CC1 [compound 916] | 
32 | 29 nM | COc1ccc(-c2ccc(C(=O)N(C)C)cc2F)cc1C(=O)N[C@@H]1C2CCC(/C2=C/c2ccccc2)[C@@H]1C(=O)Nc1ccc(F)c(C(F)(F)F)c1 (stereo partly drawn) [compound 195] | 
33 | 311 nM | CCC(NC(=O)[C@@H]1[C@H](NC(=O)c2cc(C3=NOC4COCC34)ccc2OC)[C@@H]2CC[C@H]1/C2=C/C1CC1)c1ccccc1C (single isomer, unassigned) [compound 656] | 
